Some test systems named below: CAKI-1 renal; IGROV1 ovarian; KM12 colon; LOX IMVI melanoma; MDA-MB-231 breast; NCI/ADR-RES ovarian; OVCAR-4 ovarian; SK-MEL-5 melanoma; T-47D breast; TK-10 renal.
Holding throughout (assay): inhibition of tumour cell growth, NCI panel, 48 h

Where “and” joins values, the source holds several entries; their conditions need not be identical. Equal values may be shown once.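 Interpolation was linear, between the two tested concentrations surrounding the appropriate level; five concentrations were tested over 48 hours in 96-well plates. At the GI50, growth is halved. TGI marks complete inhibition of growth.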 Where only a bound is given, the exact number is not on record here.

As to `CC(C)CC1[C@@H](OCc2ccccc2)COS(=O)(=O)N1Cc1ccccc1` (stereo partly specified), the TGI in the test on CAKI-1 renal, in the test on IGROV1 ovarian, with KM12 colon, in the test with LOX IMVI melanoma, with MDA-MB-231 breast and in the test with NCI/ADR-RES ovarian was over 100 µM in each case. Besides, the TGI in the test on OVCAR-4 ovarian, in the test with SK-MEL-5 melanoma, in the test with T-47D breast and in the test on TK-10 renal was over 100 µM in each case.
Consider `CCOC(=O)COc1c(OC)cc(C2C3=C(COC3=O)Oc3cc4c(cc32)OCO4)cc1OC` (stereo unspecified), for which the TGI was 38.1 µM in the test on CAKI-1 renal; 33.7 µM in the test on IGROV1 ovarian; over 100 µM with KM12 colon; over 100 µM in the test on LOX IMVI melanoma; over 100 µM in the test on MDA-MB-231 breast; over 37.3 µM in the test on NCI/ADR-RES ovarian. The TGI in the test with OVCAR-4 ovarian came out at 24.9 µM; in the test on SK-MEL-5 melanoma, 13.8 µM; in the test on T-47D breast it was 17.7 µM; in the test on TK-10 renal, 20.9 µM.
Consider `O=C1C=C(N2CC2)C(=O)C=C1N1CC1`, for which the GI50 was 0.000251 µM with CAKI-1 renal; 0.242 µM in the test on KM12 colon; 0.0298 µM in the test with LOX IMVI melanoma; 0.0792 µM in the test on MDA-MB-231 breast; 0.0241 µM in the test on NCI/ADR-RES ovarian; 0.185 µM with OVCAR-4 ovarian. Besides, the GI50 in the test on SK-MEL-5 melanoma was 0.0155 µM; with T-47D breast, 0.0516 µM; with TK-10 renal, 0.208 µM. The TGI in the test on CAKI-1 renal is 0.0247 µM and 0.0675 µM; with IGROV1 ovarian, 2.48 µM; in the test on KM12 colon, 2.22 µM; with LOX IMVI melanoma it was 0.206 µM and 0.386 µM; in the test with OVCAR-4 ovarian, 0.983 µM and 0.613 µM; in the test on SK-MEL-5 melanoma, 0.072 µM and 0.307 µM. Moreover, the TGI in the test on T-47D breast was 0.582 µM and 2.85 µM; with TK-10 renal, 0.772 µM.
In the case of `O=C1OC(C2OC(=O)c3cc(O)c(O)c(O)c3-c3c(O)c(O)c4oc(=O)c5c(c(O)c(O)c6oc(=O)c3c4c65)-c3c(cc(O)c(O)c3O)C(=O)OCC2O)C2OC(=O)c3c(c(O)c(O)c(O)c3[C@H]2O)-c2c1cc(O)c(O)c2O` (stereo partly specified), the TGI in the test with CAKI-1 renal is 22.4 µM; in the test with IGROV1 ovarian, over 100 µM; in the test on KM12 colon, 63 µM; in the test on LOX IMVI melanoma, 35.5 µM; with MDA-MB-231 breast, 33.7 µM; in the test on NCI/ADR-RES ovarian, 73.5 µM. The figures for the TGI in the test with OVCAR-4 ovarian, with SK-MEL-5 melanoma and with T-47D breast were 46 µM, 33.9 µM and 80.1 µM, respectively.
Regarding `Nn1c(SCC(=O)NCc2ccccc2)nc2ccccc2c1=O`, the TGI in the test with CAKI-1 renal, in the test on IGROV1 ovarian, with KM12 colon, with LOX IMVI melanoma, with MDA-MB-231 breast and in the test with NCI/ADR-RES ovarian was over 100 µM throughout. For the same compound, the TGI with OVCAR-4 ovarian, in the test on SK-MEL-5 melanoma, in the test with T-47D breast and in the test on TK-10 renal was over 100 µM each time.
Take `COC(=O)[C@H](Cc1ccccc1)NP(=O)(O)OCC1OC(n2cc(C)c(=O)[nH]c2=O)CC1N=[N+]=[N-]` (stereo partly specified): the TGI in the test on CAKI-1 renal, in the test on IGROV1 ovarian, in the test with KM12 colon, with LOX IMVI melanoma, in the test with MDA-MB-231 breast and in the test with NCI/ADR-RES ovarian was over 100 µM throughout. For the same compound, the TGI with OVCAR-4 ovarian, with SK-MEL-5 melanoma, with T-47D breast and with TK-10 renal was over 100 µM in each case.
Turning to `CC12CC3(O)OC(O1)C1(COC(=O)c4ccccc4)C3CC21OC1OC(CO)C(O)C(O)C1O` (stereo unspecified), the TGI in the test with CAKI-1 renal, in the test on IGROV1 ovarian, in the test on KM12 colon, in the test on LOX IMVI melanoma, in the test with MDA-MB-231 breast and with NCI/ADR-RES ovarian was over 100 µM throughout. The TGI with OVCAR-4 ovarian, in the test with SK-MEL-5 melanoma, in the test with T-47D breast and in the test on TK-10 renal was over 100 µM in each case.
Turning to `O=C1CC(c2ccc[nH]2)=NN1c1ccccc1`, the TGI in the test with CAKI-1 renal, in the test on KM12 colon, with LOX IMVI melanoma, in the test on MDA-MB-231 breast, in the test with NCI/ADR-RES ovarian and in the test on OVCAR-4 ovarian was over 100 µM in each case. The TGI in the test with SK-MEL-5 melanoma, with T-47D breast and in the test with TK-10 renal was over 100 µM throughout.
As to `CCOC(=O)/C=C(\N=P(c1ccccc1)(c1ccccc1)c1ccccc1)C(F)(F)C(F)(F)C(F)(F)C(F)(F)C(F)(F)F`, the TGI in the test with CAKI-1 renal, in the test with IGROV1 ovarian, in the test with KM12 colon, in the test on LOX IMVI melanoma, in the test with MDA-MB-231 breast and in the test on NCI/ADR-RES ovarian was over 100 µM in each case. Moreover, the TGI in the test on OVCAR-4 ovarian, in the test with SK-MEL-5 melanoma, in the test on T-47D breast and in the test with TK-10 renal was over 100 µM throughout.
As to `Cn1c2ccccc2n2c(=O)c3cccnc3c(C#N)c12`, the TGI in the test on CAKI-1 renal, with KM12 colon, in the test with LOX IMVI melanoma, in the test on MDA-MB-231 breast, in the test with NCI/ADR-RES ovarian and in the test with OVCAR-4 ovarian was over 100 µM each time. Also, the TGI in the test on SK-MEL-5 melanoma, with T-47D breast and in the test on TK-10 renal was over 100 µM throughout.
With `CC(=N/NC(=S)N1CCCCC1)/C(C)=N\NC(=S)N1CCCCC1`, the TGI is 3.23 µM in the test with CAKI-1 renal; 3.13 µM in the test with IGROV1 ovarian; over 100 µM in the test on LOX IMVI melanoma; 5.63 µM in the test with MDA-MB-231 breast; 5.22 µM in the test on NCI/ADR-RES ovarian; 3.46 µM in the test with OVCAR-4 ovarian. Besides, the TGI in the test with SK-MEL-5 melanoma stood at 3.07 µM; in the test on T-47D breast, 3.27 µM; in the test with TK-10 renal, 3.24 µM.
As to `CN(C)CCNC(=O)c1ccc(NCCCN(C)CCCNc2ccc(C(=O)NCCN(C)C)c3[nH]c4ccc([N+](=O)[O-])cc4c(=O)c23)c2c(=O)c3cc([N+](=O)[O-])ccc3[nH]c12`, the TGI with CAKI-1 renal turned out to be 3.75 µM; with IGROV1 ovarian, 0.389 µM; in the test on LOX IMVI melanoma, 0.206 µM; in the test on MDA-MB-231 breast it was 0.34 µM; in the test on NCI/ADR-RES ovarian it was 3.58 µM; in the test on OVCAR-4 ovarian, 1.55 µM. Also, the figures for the TGI with SK-MEL-5 melanoma, in the test with T-47D breast and with TK-10 renal were 1.14 µM, 2.55 µM and 1.38 µM, respectively.
Regarding `C/C(=N\O)c1cccc(Nc2nc3ccccc3c3occc23)c1`, the TGI was 34.2 µM with CAKI-1 renal; 27.3 µM in the test with KM12 colon; 33.2 µM with LOX IMVI melanoma; 26.4 µM in the test on MDA-MB-231 breast; 29.7 µM in the test with NCI/ADR-RES ovarian; 30.2 µM in the test with OVCAR-4 ovarian. Moreover, the TGI was 27 µM with SK-MEL-5 melanoma, 44.7 µM in the test on T-47D breast and 27.6 µM with TK-10 renal.

Values taken from PubChem BioAssay (NCI).
